# Data as given in patent US20080145858A1, “DETECTION AND IDENTIFICATION OF TOXICANTS BY MEASUREMENT OF GENE […]” (priority 2003, published 2008).
# Marks after values point to notes of the source that are not given here.
# System: Xenopus laevis neurulation stage embryos (stage 15)
# Test: Xenopus cDNA microarray, differential gene expression after PMA treatment during neurulation (Group II)
# Assay type: in vivo
# Settings: for Ratio of Medians (Cy5/Cy3) Mean / Ratio of Medians (Cy5/Cy3) Second Spot / Cy3/Cy5 by Landmarks (0.25) / Cy3/Cy5 by all Data Points (0.469) / Normalized by Landmarks (0.25) / Normalized by all Data Points (0.469) / Ratio of Medians (Cy5/Cy3) First Spot: PMA, stage 15; for % increase of mRNA expression by Microarray analysis (NF by all data point): Stage 15
# Source text: Specifically, the method and screen of the present invention function as follows. EST clones produced from Xenopus laevis unfertilized eggs were used in the present study with ˜1,200 EST clones from a 18,500 EST clone set selected for production of a Xenopus cDNA microarray. The Xenopus microarray was used to measure the effect of chemical treatment on Xenopus embryo gene regulation. The chemical treatment was a phorbol ester, PMA. Xenopus eggs were obtained from females induced for ovulation and fertilized in vitro. Control Xenopus laevis embryos were allowed to develop to stage 8 blastula or stage 15 neurula. Treated embryos were exposed to PMA during cleavage stage or during neurulation with end points of blastula (stage 8) or neurula (stage 15). Specifically, PMA 100 ng/ml was added to the incubation media during cleavage stages for evaluation in stage 8 embryo or PMA was added during neural induction for evaluation in stage 15 embryos. RNA extracted from the embryos was used to generate fluorescent cDNA probes for Xenopus microarray analyses to measure differential gene expression with and without the phorbol ester treatment. Analysis was performed using paired RNA samples to compare PMA-treated and untreated embryos: Group I measured the effects of PMA-treatment during the cleavage stage in stage 8 embryos and Group II measured the effects of PMA-treatment during neurulation in stage 15 embryos. Group III measured the change in gene expression between stage 8 and stage 15 embryos.
# cDNA fragments were obtained by PCR replication of Xenopus laevis unfertilized egg cDNA inserts, purified, quantitated and loaded onto glass chips by robotics. In addition to the selected ˜1,200 genes, 64 lambda Q gene, an internal control cDNA (Genomic Solutions, Inc., Ann Arbor, Mich.) was loaded on the chip. The insert DNA from ˜1,200 clones were PCR amplified using forward and reverse primers (GF.200 primers, Research Genetics, Huntsville, Ala.). A second PCR was carried out using 1 μl of the primary PCR (20 μl) for template. Excess dNTPs, polymerase and other PCR artifacts were removed from the secondary PCR reactions using Millipore Multiscreen plates (Millipore Corporation, Bedford, Mass.) using the standard protocol. The purity of the PCR products was assessed by electrophoresis and documented using an Alphalmager 1000 Digital Imaging System (Alpha Innotech Corporation, San Leandro, Calif.). The DNA obtained by PCR was quantitated using PicoGreen (Molecular Probes, Eugene, Oreg.). The DNA was denatured and arrayed onto amino-silane coated microscope slides (CMT-GAPS coated slides, Corning, Corning, N.Y.) using a Flexys robotic workstation (Genomic Solutions Inc.). The ˜1,200 PCR products were arrayed in duplicate on each slide and cross-linked. Each gene chip contained duplicate cDNA samples.
# Total RNA was prepared from embryos treated in three separate dishes per treatment group that were pooled. Total RNA was isolated from the frog embryos (1,200 embryos for each probe production) using TRIzol extraction (Gibco BRL, Grand Island, N.Y.) and Qiagen RNeasy kits (Qiagen, Valencia, Calif.). The ethanol precipitated RNA was resuspended in RNase-free water, quantitated with RiboGreen (Molecular Probes, Eugene, Oreg.). Total RNA was further purified using oligoTex mRNA maxi kit (Qiagen Co.) with the bound mRNA eluted with minimum volume of elution buffer and precipitated with ethanol. The recovery rate of mRNA by the ethanol precipitation method was ˜70%. Cy3- or Cy5-tagged probes were produced from an mRNA mixture (20 μl) of Xenopus mRNA (5 μg) and lambda Q gene mRNA (3.5 ng) reverse-transcribed with oligo(dT)18-22 primer and dNTPs and the reverse-transcribed cDNA was cross-linked with Cy3 or Cy5 as described in Clontech Atlas™ Glass Fluorescent Labeling kit manual (www.clontech.com). After hydrolysis of the RNA and purification of the probe (Centricon 50, Millipore, Bedford, Mass.), the cDNA in TE buffer was quantitated by absorbance at 260 nm. […]
structure (smiles),measurement,setting,value
"CCCCCCCCCCCCCC(=O)O[C@@H]1[C@@H](C)[C@@]2(O)[C@@H](C=C(CO)C[C@]3(O)C(=O)C(C)=C[C@@H]23)[C@@H]2C(C)(C)[C@]12OC(C)=O [PMA, phorbol 12-myristate 12-acetate]",Ratio of Medians (Cy5/Cy3) Mean,PBX0139G06 mRNA,1.06 ± 0.00 ^a
same,Ratio of Medians (Cy5/Cy3) Second Spot,PBX0139G06 mRNA,1.06
same,Cy3/Cy5 by Landmarks (0.25),PBX0140A10 mRNA,4.20
same,Cy3/Cy5 by all Data Points (0.469),PBX0140A10 mRNA,2.24
same,Normalized by Landmarks (0.25),PBX0140A10 mRNA,0.238
same,Normalized by all Data Points (0.469),PBX0140A10 mRNA,0.446
same,Ratio of Medians (Cy5/Cy3) First Spot,PBX0140A10 mRNA,0.89
same,Ratio of Medians (Cy5/Cy3) Mean,PBX0140A10 mRNA,0.95 ± 0.06 ^a
same,Ratio of Medians (Cy5/Cy3) Second Spot,PBX0140A10 mRNA,1.00
same,Cy3/Cy5 by Landmarks (0.25),PBX0141B10 mRNA,3.92
same,Cy3/Cy5 by all Data Points (0.469),PBX0141B10 mRNA,2.09
same,Normalized by Landmarks (0.25),PBX0141B10 mRNA,0.255
same,Normalized by all Data Points (0.469),PBX0141B10 mRNA,0.478
same,Ratio of Medians (Cy5/Cy3) First Spot,PBX0141B10 mRNA,0.92
same,Ratio of Medians (Cy5/Cy3) Mean,PBX0141B10 mRNA,1.02 ± 0.10 ^a
same,Ratio of Medians (Cy5/Cy3) Second Spot,PBX0141B10 mRNA,1.12
same,Cy3/Cy5 by Landmarks (0.25),PBX0141H05 mRNA,10.8
same,Cy3/Cy5 by all Data Points (0.469),PBX0141H05 mRNA,5.76
same,Normalized by Landmarks (0.25),PBX0141H05 mRNA,0.093
same,Normalized by all Data Points (0.469),PBX0141H05 mRNA,0.174
same,Ratio of Medians (Cy5/Cy3) First Spot,PBX0141H05 mRNA,0.73
same,Ratio of Medians (Cy5/Cy3) Mean,PBX0141H05 mRNA,0.37 ± 0.36 ^a
same,Ratio of Medians (Cy5/Cy3) Second Spot,PBX0141H05 mRNA,0.015
same,Normalized by Landmarks (0.25),PBX 0141H12 mRNA,1.40
same,Normalized by all Data Points (0.469),PBX 0141H12 mRNA,2.63
same,Ratio of Medians (Cy5/Cy3) First Spot,PBX 0141H12 mRNA,7.46
same,Ratio of Medians (Cy5/Cy3) Mean,PBX 0141H12 mRNA,5.61 ± 1.85 ^a
same,Ratio of Medians (Cy5/Cy3) Second Spot,PBX 0141H12 mRNA,3.75
same,Normalized by Landmarks (0.25),PBX 0143E06 mRNA,1.60
same,Normalized by all Data Points (0.469),PBX 0143E06 mRNA,3.01
same,Ratio of Medians (Cy5/Cy3) First Spot,PBX 0143E06 mRNA,6.04
same,Ratio of Medians (Cy5/Cy3) Mean,PBX 0143E06 mRNA,6.41 ± 0.3 ^a
same,Ratio of Medians (Cy5/Cy3) Second Spot,PBX 0143E06 mRNA,6.78
same,Normalized by Landmarks (0.25),PBX 0143E11 mRNA,1.41
same,Normalized by all Data Points (0.469),PBX 0143E11 mRNA,2.64
same,Ratio of Medians (Cy5/Cy3) First Spot,PBX 0143E11 mRNA,4.62
same,Ratio of Medians (Cy5/Cy3) Mean,PBX 0143E11 mRNA,5.64 ± 1.01 ^a
same,Ratio of Medians (Cy5/Cy3) Second Spot,PBX 0143E11 mRNA,6.65
same,Cy3/Cy5 by Landmarks (0.25),PBX0144A09 mRNA,4.00
same,Cy3/Cy5 by all Data Points (0.469),PBX0144A09 mRNA,2.13
same,Normalized by Landmarks (0.25),PBX0144A09 mRNA,0.250
same,Normalized by all Data Points (0.469),PBX0144A09 mRNA,0.469
same,Ratio of Medians (Cy5/Cy3) First Spot,PBX0144A09 mRNA,0.83
same,Ratio of Medians (Cy5/Cy3) Mean,PBX0144A09 mRNA,1.00 ± 0.17 ^a
same,Ratio of Medians (Cy5/Cy3) Second Spot,PBX0144A09 mRNA,1.16
same,Cy3/Cy5 by Landmarks (0.25),PBX0145D04 mRNA,4.35
same,Cy3/Cy5 by all Data Points (0.469),PBX0145D04 mRNA,2.32
same,Normalized by Landmarks (0.25),PBX0145D04 mRNA,0.230
same,Normalized by all Data Points (0.469),PBX0145D04 mRNA,0.431
same,Ratio of Medians (Cy5/Cy3) First Spot,PBX0145D04 mRNA,0.9
same,Ratio of Medians (Cy5/Cy3) Mean,PBX0145D04 mRNA,0.92 ± 0.02 ^a
same,Ratio of Medians (Cy5/Cy3) Second Spot,PBX0145D04 mRNA,0.95
same,Cy3/Cy5 by Landmarks (0.25),PBX0145D06 mRNA,4.03
same,Cy3/Cy5 by all Data Points (0.469),PBX0145D06 mRNA,2.15
same,Normalized by Landmarks (0.25),PBX0145D06 mRNA,0.248
same,Normalized by all Data Points (0.469),PBX0145D06 mRNA,0.464
same,Ratio of Medians (Cy5/Cy3) First Spot,PBX0145D06 mRNA,0.98
same,Ratio of Medians (Cy5/Cy3) Mean,PBX0145D06 mRNA,0.99 ± 0.01 ^a
same,Ratio of Medians (Cy5/Cy3) Second Spot,PBX0145D06 mRNA,1.00
same,% increase of mRNA expression by Microarray analysis (NF by all data point),gene PBX0135A08,no change
same,% increase of mRNA expression by Microarray analysis (NF by all data point),gene PBX013409,no change
